According to patent publication US20090291150A1, “METHOD AND COMPOSITIONS FOR TREATING AND […] BY […]-SENSING ION CHANNEL ACTIVITY” (priority 2008, published 2009):

How the values were obtained:
[1] = system: PTZ-evoked lethal seizures; experiment: CO2 inhalation at onset of PTZ-evoked generalized seizures, survival; format: in vivo, mouse; conditions: 90 mg/kg PTZ IP, 10% CO2 in air for 15 minutes from onset of generalized seizures
Description: Age (13-16 weeks) and gender-matched ASIC1a+/+ and ASIC1a−/− mice were injected IP with 90 mg/kg PTZ to test the anti-epileptic effects of CO2. A high dose of PTZ was administered to evoke lethal seizures in mice of both genotypes (FIG. 6a). Kaplan-Meier survival analysis of ASIC1a+/+ and ASIC1a−/− mice in response to 90 mg/kg PTZ while breathing compressed air was conducted (+/+, n 7; −/−, n=7). Both mice had the same rate of reduced survival (Mantel-Cox Log Rank, p=0.582).
After the onset of generalized-clonic seizures (identified behaviorally by clonus in all four limbs), compressed air or 10% CO2 (in air) was rapidly administered in an airtight Plexiglas chamber for 15 minutes (FIG. 6b). The onset latency and time of CO2 administration was similar between genotypes (inset) (unpaired T-test, df (14), t=0.663, p=0.518). The chamber was perfused with CO2 until minute 15, and then switched to compressed air for the duration of the trial (+/+, n=8; −/−, n=8). […] In the ASIC1a−/− mice, seizures continued to progress rapidly to death. All of the ASIC1a+/+ mice survived until the CO2 was switched back to air at minute 15, whereupon the mice rapidly died. The results verified the in vitro findings and taught that ASIC1a also mediates the anti-epileptic effects of low pH in vivo.

ASIC1a = target: T1, ASIC1a (Mus musculus, UniProt Q6NXK8); experiment: Kainate-induced seizures after ICV injection of PcTx1 in wild-type mice; format: in vivo; conditions: ICV injection 2 hours before kainate 20 mg/kg IP
T1 construct: from tissue; host or cells: brain of living wild-type mice (C57/B16 background), ICV injection
T1 sequence (Q6NXK8 1-526): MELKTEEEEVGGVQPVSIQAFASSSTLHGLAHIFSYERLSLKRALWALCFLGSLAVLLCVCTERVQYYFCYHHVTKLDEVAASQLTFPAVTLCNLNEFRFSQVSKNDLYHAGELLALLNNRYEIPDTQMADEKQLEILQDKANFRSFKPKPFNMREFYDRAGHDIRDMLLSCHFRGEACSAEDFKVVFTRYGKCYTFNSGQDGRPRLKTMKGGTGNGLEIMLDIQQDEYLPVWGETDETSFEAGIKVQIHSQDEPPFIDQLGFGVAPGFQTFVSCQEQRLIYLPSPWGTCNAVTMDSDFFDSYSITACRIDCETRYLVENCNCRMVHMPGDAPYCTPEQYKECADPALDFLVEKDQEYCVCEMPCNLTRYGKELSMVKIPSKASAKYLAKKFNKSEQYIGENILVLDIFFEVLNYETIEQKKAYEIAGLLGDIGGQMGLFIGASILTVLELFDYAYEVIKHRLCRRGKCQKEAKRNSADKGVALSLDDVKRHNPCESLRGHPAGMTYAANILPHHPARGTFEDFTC
Description: Similar effects on seizure activity with both ASIC1a gene disruption and pharmalogical blockade indicate that developmental abnormalities were not responsible for the effects in ASIC1a−/− mice.
Left-lateral, ICV guide cannulae were implanted in anesthetized mice (relative to bregma: anteroposterior −0.3 mm, lateral−1.0 mm, ventral=3.0 mm) and verified by methylene blue injection after euthanasia. Three to five days later, 5 uL or PcTx1-containing venom (SpiderPharm, Yarnell, Ariz.) ([…]) was injected in ACSF (in mM: NaCl 124, KCl 3, NaH2PO4 1.2, MgSO4 1.2, CaCl2 2, NaHCO3 26) or ACSF alone into wild-type mice using a 10 uL-Hamilton syringe connected to a 30-gauge injection (over 10 seconds). Two hours later, mice were injected with kainate (20 mg/kg, IP) then mouse behavior was scored. Continuous, tonic-clonic seizures were identified by tonus and clonus in all four limbs with loss of posture lasting greater than 60 seconds.

Compound | effect on lethal seizures (survival) ([1]; ASIC1a-/- mice) | effect on lethal seizures (survival) ([1]; WT (ASIC1a+/+) mice) | incidence of continuous GTCS following kainate injection (ASIC1a)
O=C=O [CO2, carbon dioxide] | had little effect | prevented lethal seizures | 
psalmotoxin 1 [PcTx1] |  |  | increased the incidence of continuous GTCS
